Assay results from patent publication US7189751B2, “Oxa(thia)zolidine compounds, process for preparation thereof and anti-inflammatory agents” (Nippon Soda Co., Ltd., priority 2001, dated 2007).

What was measured:
[1] = test system: acetic acid induced writhes; experiment: Acetic acid writhing; format: in vivo, mouse
Procedure: Pharmacological Test Example 4: Acetic Acid Wirthing
This test was carried out referring to the method of Inoue, K., Motonaga, A. & Nishimura, T (Arzneimittel Forshung/Drug Research, 41 (1): 235–239 (1991)). More specifically, 7.5 mL/kg of 0.9% acetic acid solution was injected intraperitoneally into an ICR-strain male mouse (5 to 7 weeks old), and the induced writhes (characteristic behaviors of convulsive contracting the abdomen, twisting the body and/or extending the legs) were observed. Number of writhes of each mouse was measured during 10 to 20 min. period after acetic acid administration. […] The analgesic activity of the compounds according to the present invention was evaluated on the basis of the degree of inhibiting the number writhes by the administration of the compounds. As the positive control, indomethacin or aspirin was administrated. The analgesic activity of the compounds according to the present invention measured in this test were exemplified in Table 7.

[2] = test system: Mouse Ear Edema Induced by TPA; experiment: Mouse ear edema induced by TPA; format: in vivo; settings: topical, 0.3 mg/20 μL/ear × 2; ICR male mouse; 6 hours after TPA
Procedure: Pharmacological Test Example 2: Mouse Ear Edema Induced by TPA
This test was carried out referring to the method of Carlson, R. P. et al. (Agents and Actions, 17(2): 197–204 (1985).) and the method of Chang, J. (European Journal of Pharmacology, 142: 197–205 (1987).). More specifically, 5 μg/20 μL of TPA (Sigma Chemical Co.), dissolved with ethanol, was topically applied to the anterior and posterior surfaces of the right ear of an ICR-strain male mouse (6–7 weeks old). 6 hours later, the thickness of each ear at the particular part was respectively measured three times using a digimatic micrometer to calculate the mean value. Ear edema was determined by subtracting the mean thickness of the left ear as without treatment from that of the right ear as TPA-applied. Topical application activity was evaluated by applying an acetone solution of the compound of the present invention or 0.1% Tween 80/acetone solution thereof similarly to the anterior and posterior surfaces of the right ear 30 min. before and 15 min. after the TPA-application. […] Oral administration activity was evaluated by administrating 0.2% Tween 80 suspension of the compound of the present invention forcibly and perorally to the mouse an hour prior to the TPA-application. As the positive control, 100 mg/kg of Hydrocortisone (Sigma Chemical Co., H 4001) suspension was applied to the mouse similarly as for the compound of the present invention.

[3] = test system: Mouse Delayed Contact Dermatitis Induced by Picryl Chloride; experiment: Mouse delayed contact dermatitis induced by picryl chloride; format: in vivo
Procedure: Pharmacological Test Example 3 Mouse Delayed Contact Dermatitis Induced by Picryl Chloride
This pharmacological test was carried out referring to the method of Asherson, G. L. & Ptak, W. (Immunology, 15: 405–416 (1968).) and the method of Jun Hiroi (Folia Pharmacology of Japan, 86: 233–239 (1985).). More specifically, hairs on the abdomen of an ICR-strain male mouse were removed using an electric clipper and an electric shaver. Then, 0.1 mL of 7% ether solution of picryl chloride (Tokyo Kasei Kogyo Co., Ltd., C 0307) was applied onto the abdomen for sensitization. On the sixth day after the sensitization, 20 μL/ear of 1% olive oil solution of picryl chloride was topically applied to the anterior and posterior surfaces of both ears of the mouse to induce contact dermatitis (first induction). Before and 24 hours after the induction, the thicknesses of the particular parts on the both ears were measured three times, respectively, using a digimatic micrometer (Mitsutoyo Co., Ltd.) to work out the average values. Ear edema of the both ears was respectively determined by subtracting the average thickness of the each ear before the induction from that on 24 hours after the induction, so that a grouping was carried out to separate the appropriate individuals. On the fourth day after the first induction, the hairs on the abdomen were removed again, and 0.1 mL of 7% ethanol solution of picryl chloride was applied thereto for additional sensitization. The contact dermatitis for evaluating activity was induced by re-applying 20 μL/ear of 1% olive oil solution of picryl chloride to the anterior and posterior surfaces of both ears (second induction) on the seventh day after the additional sensitization (on the […] after the first sensitization). The activity of each compound of the present invention was evaluated as the inhibition on the contact dermatitis as compared with that of the vehicle applied control. That is, the thicknesses of the particular portions of the both ears were measured respectively three times with a digimatic micrometer to work out the mean values before, 24 hours and 48 hours after the second induction. Ear swelling was determined by subtracting the ear thickness before the second induction from that on 24 hours and 48 hours after the second induction, respectively. Topical application activity was evaluated by applying 25 μL of the acetone solution of the compound of the present invention similarly to the anterior and posterior surfaces of the right ear one hour before and 16 hours after the second induction. As the positive control, 0.02 mg/20 μL of acetone solution of Dexamethasone (hereinafter referred to as DEX, Wako Pure Chemical Industries Ltd., 047-18863) was applied similarly as for the compound of the present invention. With respect to the inhibitory activity in topical application tests, the topical activity was determined by the inhibition of the applied right ear edema, and the translocation and distribution property was determined by the activity onto the swelling of non-treated left ear. Oral administration activity was evaluated by administrating 0.5% methyl cellulose suspension of the compound of the present invention forcibly and perorally to the mouse an hour before and 16 hours after the second induction. As the positive control, 20 mg/kg of Prednisolone (Sigma Chemical Co., P 6004) suspension was administrated similarly as for the compounds of the present invention. […] As the examples, the body weight changes in the mice for 48 hours after the second induction when they were administrated with the compounds shown in Table 5 are shown in Table 6.

SMILES: CCOC(=O)C(=C1N[C@@H](C)[C@H](c2ccc(Cl)cc2)S1)[N+](=O)[O-] (relative stereo) [Compound 2-29, Trans-5-(4-chlorophenyl)-4-methyl-2-(1-ethoxycarbonyl-1-nitromethylene)-thiazolidine]
- Number of writhes (Mean ± S.E.) ([1]; i.p. 1 mg/kg, 30 min before, vehicle i.p. 25.2 ± 2.2): 5.5 ± 1.9
- Number of writhes (Mean ± S.E.) ([1]; p.o. 10 mg/kg, 120 min before, vehicle p.o. 23.5 ± 3.1): 1.5 ± 0.7
- Ear Edema Inhibition (%) [2]: 78.6%
- Change in body weight 48 hours after induction (Mean ± S.E.) ([3]; 1.5 mg/ear × 2, vehicle control −0.45 ± 0.20): -0.06 ± 0.15 g
- Change in body weight 48 hours after induction (Mean ± S.E.) (%) ([3]; 1.5 mg/ear × 2, vehicle control −1.29 ± 0.59): −0.20 ± 0.48%
- Ear swelling after 24 hours, Right (Applied) (Mean ± S.E., mm) ([3]; topical 1.5 mg/25 μL/ear × 2, vehicle control 0.299 ± 0.006): 0.261 ± 0.012 mm
- Ear swelling after 24 hours, Left (Not applied) (Mean ± S.E., mm) ([3]; topical 1.5 mg/25 μL/ear × 2 on right ear, vehicle control 0.284 ± 0.008): 0.243 ± 0.020 mm
